biological target: T1, Tyrosinase (Agaricus bisporus, UniProt O42713); experiment: Inhibition of mushroom tyrosinase using L-DOPA as substrate after 10 mins
T1 sequence (O42713 whole entry): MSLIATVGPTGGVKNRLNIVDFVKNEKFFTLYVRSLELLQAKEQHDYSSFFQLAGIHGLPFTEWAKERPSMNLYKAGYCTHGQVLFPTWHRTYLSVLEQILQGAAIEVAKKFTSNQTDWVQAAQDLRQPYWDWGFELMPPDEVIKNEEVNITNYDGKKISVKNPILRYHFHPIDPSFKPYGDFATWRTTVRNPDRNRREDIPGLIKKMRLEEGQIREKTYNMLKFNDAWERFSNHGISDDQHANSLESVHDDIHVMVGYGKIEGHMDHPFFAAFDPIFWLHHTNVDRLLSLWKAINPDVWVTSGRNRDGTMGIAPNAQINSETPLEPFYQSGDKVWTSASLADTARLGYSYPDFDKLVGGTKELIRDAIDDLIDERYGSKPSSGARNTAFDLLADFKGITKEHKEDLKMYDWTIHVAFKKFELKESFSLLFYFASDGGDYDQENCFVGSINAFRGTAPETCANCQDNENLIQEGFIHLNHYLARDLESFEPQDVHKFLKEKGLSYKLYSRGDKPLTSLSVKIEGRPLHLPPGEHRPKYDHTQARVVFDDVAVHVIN

| IC50 | Compound |
| --- | --- |
| 49.6 µM | Oc1ccc(CCc2ccc(F)cc2)c(O)c1 |
| 33.8 µM | Oc1ccc(CCc2ccccc2Cl)c(O)c1 |
| 30.6 µM | Oc1ccc(CCc2ccccc2)c(O)c1 |
| 8.44 µM | Oc1ccc(CCc2ccc(O)cc2O)cc1 |
| 31.6 µM | COc1ccc(CCc2ccc(O)cc2O)cc1 |

Source: ChEMBL document CHEMBL2203088, “Design, synthesis and molecular simulation studies of dihydrostilbene derivatives as potent tyrosinase inhibitors” (Bioorg Med Chem Lett, 2012)
